Consider three molecules from US10835533B2, “1 -((3S,4R)-4-(3-fluorophenyl)-1-(2-methoxyethyl)pyrrolidin-3-yl)-3-(4-methyl-3-(2-methylpyrimidin-5-yl)-1-phenyl-1H-pyrazol-5-yl)urea as a TrkA kinase inhibitor” (Array BioPharma Inc., priority 2014, dated 2020).

In series [1] the target is T1, cloned hERG potassium channels expressed in human embryonic kidney cells (HEK293) (Homo sapiens, UniProt Q12809).
T1 construct: expressed in transfected cells; host or cells: HEK293
The experiment in a line: FASTPatch hERG Assay (Example F). The class given is cell-based. To be noted: HEK293, QPatch HT, room temperature. How it is done: This assay was used to measure the effects of Compound 1, Compound 2, and Compound 3 on cloned hERG potassium channels expressed in human embryonic kidney cells (HEK293). The in vitro effects of Compound 1, Compound 2, and Compound 3 on the hERG (human ether-a-go-go-related gene) potassium channel current (a surrogate for IKr, the rapidly activating, delayed rectifier cardiac potassium current) expressed in mammalian cells were evaluated at room temperature using the QPatch HT® (Sophion Bioscience A/S, Denmark), an automatic parallel patch clamp system. The test article was evaluated at 0.3, 1, 3, 10, 30 and 100 μM with each concentration tested in three or more cells (n≥3). The duration of exposure to each test article concentration was 3 minutes. A positive control confirmed the sensitivity of the test system to hERG inhibition.
(In general: The hERG channel carries a current that helps repolarise heart muscle cells.)

Another series relates to off-target kinases. Nature of the series: KinaseProfiler off-target kinase profiling, full kinase panel (Example H). Format: biochemical. The following applies: 10 μM, ATP near the Km. Here is the method:
Compound 1 was tested for off-target kinase activity at a concentration of 10 μM by Millipore, Inc. in their KinaseProfiler™ service against all the kinases available in their full kinase panel. Compound 1 was run in duplicate at a concentration of ATP near the Km for each individual kinase according to Millipore's specifications. Data are reported as percent of control (POC) and are the average of the two replicates.

Series [2] in a line: IV clearance, 1 mg/kg IV, dog. Format: in vivo. The following applies: for clearance: male, Beagle, plasma, 1 mg/kg IV; for in vivo/in vitro correction factor: microsomal CLh divided by IV CL. Here is the method: (§1) In Table 1, the predicted human IV clearance values were calculated from compound concentration-versus-time data in plasma collected from pre-clinical species (mouse, rat, dog and monkey) following 1 mg/kg intravenous (IV) doses. Concentrations of compound in plasma were measured by LC-MS (liquid chromatography-mass spectrometry). AUCinf values (Area under the plasma concentration-time curve for a dosing interval from time 0 extrapolated to infinity) for individual Cp/t curves (concentration of the drug in plasma at any time t) were determined using linear-trapezoidal integration and first order extrapolation from terminal points of the Cp/t curves, and clearance (CL) was calculated using Dose/AUCinf.
An IV dose formulation for delivery of a 1 mg/kg in 1 mL/kg dose volume was prepared as follow. The vehicle for the formulation was 20% Trappsol® (hydroxypropyl Beta cyclodextrin; CDT, Inc.) (aq) in water. A final volume of the vehicle was added to each of Compound 1, Compound 2, and Compound 3 (as dry compounds) and the mixture was stirred until a homogeneous solution was obtained. The pH of the final solution was 7. The solution was filtered using a 0.2 μM filter before delivering to the animal.
Male Beagle dogs received a single intravenous dose following an overnight fast. Blood/plasma was collected (1.5 mL/timepoint) in K2EDTA blood collection tubes at the following time points post-dose: 0, 1, 5, 15, and 30 minutes, and 1, 2, 4, 8, 12, 24, and 48 hours, and mixed thoroughly. Blood samples were collected from the jugular, cephalic or saphenous veins from conscious animals. Blood samples were kept on ice until processed for plasma. Blood samples were centrifuged at 3200 RPM for 10 minutes at approximately 5° C. Plasma samples were directly transferred to 96-well plate tubes (MatrixTech, 0.75 mL). Rubber injectable caps were placed on the 96-well plate tubes. Plasma samples were stored at −20±5° C. until analyzed.
A single 12-point calibration curve was prepared by first serially diluting (3-fold) a 40-μg/mL stock solution of Compound 1, Compound 2, and Compound 3 in DMSO to provide standard solutions. Plasma (20 μL) was then added to the extraction plate, and 2.5 μL of each standard solution was added to the naïve plasma. A stock solution of an internal standard (10.0 μL of 2.5 μg/mL in acetonitrile) subsequently was added to each standard and sample solution. Proteinaceous material was precipitated from 20 μL of plasma with the addition of 317.5 μL of acetonitrile for a total volume of 350 μL. Samples were vortex-mixed for 5 minutes and spun in an Allegra X-12R centrifuge (Beckman Coulter, Fullerton, Calif.) for 15 minutes at approximately 1,500×g at 4° C. A 100-μL aliquot of each supernatant was transferred via a 550 μL Personal Pipettor (Apricot Designs, Monrovia, Calif.) to 96-well plates and diluted 1:1 with HPLC grade water. The resulting plates were sealed with plate mats and the amount of Compound 1 n plasma was analyzed by LC-MS/MS.
The LC-MS/MS system was comprised of an HTC-PAL autosampler (Leap Technologies, Inc., Carrboro, N.C.), an HP1100 HPLC (Agilent Technologies Inc., Santa Clara, Calif.), and an API4000 triple quadrupole mass spectrometer (Applied Biosystems, Foster City, Calif.). Chromatographic retention of the analyte and internal standard was achieved using a Phenomenex® Synergi 4μ Hydro-RP 80A column (2.1×30 mm, 4 μm particle size; Phenomenex, Torrance, Calif.) in conjunction with gradient conditions using mobile phases A (10 mM ammonium acetate in aqueous 0.1% formic acid and 1% isopropyl alcohol) and B (10 mM ammonium acetate in 89.9% acetonitrile, 10% methanol, 0.1% formic acid). The total run time, including re-equilibration time, for a single injection was 3.5 minutes and the flow rate was 0.8 mL/minute. Solvent B was increased from 5 to 95% in 1.0 minute, held at 95% for 1.0 minute, and then decreased to 5% in 0.1 minute. […]

Series [3] deals with T2, His-tagged recombinant human TrkA (Homo sapiens, UniProt P04629).
T2 construct: 6HIS tagged cytoplasmic domain from Invitrogen, Catalog No. PV3144; purchased Invitrogen PV3144
Nature of the series: TrkA LanthaScreen Eu Kinase Binding Assay (Example A). To be noted: assay of Example A; 60-minute incubation at 22° C.; read-out: averaged IC50 value, TrkA binding. How it is done: TrkA binding activity was determined in a TrkA LanthaScreen™ Eu Kinase Binding Assay. 5 nM His-tagged recombinant human TrkA (6HIS tagged cytoplasmic domain from Invitrogen, Catalog No. PV3144) was incubated with 4 nM Alexa-Fluor® Tracer 236 (Invitrogen Catalog No. PV5592), 2 nM biotinylated anti-His (Invitrogen Cat. No. PV6090), and 2 nM europium-labeled Streptavidin (Invitrogen Cat. No. PV5899), in buffer (25 mM MOPS, pH 7.5, 5 mM MgCl2, 0.005% Triton X-100). Three fold serial dilutions of Compound 1, compound 2 or compound 3 in DMSO were added to a final percentage of 2% DMSO. After 60-minute incubation at 22° C., the reaction was measured using the EnVision mutlimode plate reader (PerkinElmer) via TR-FRET dual wavelength detection at […]. The percent of control was calculated using a ratiometric emission factor. The IC50 value was determined by fitting a four parameter model to the percent of control data.

Series [4] is described as follows: IV clearance, 1 mg/kg IV, mouse. Format: in vivo. The following applies: for in vivo/in vitro correction factor: microsomal CLh divided by IV CL; for clearance: plasma, 1 mg/kg IV. How it is done: as §1

T2 sequence (P04629 440-796 limits assumed): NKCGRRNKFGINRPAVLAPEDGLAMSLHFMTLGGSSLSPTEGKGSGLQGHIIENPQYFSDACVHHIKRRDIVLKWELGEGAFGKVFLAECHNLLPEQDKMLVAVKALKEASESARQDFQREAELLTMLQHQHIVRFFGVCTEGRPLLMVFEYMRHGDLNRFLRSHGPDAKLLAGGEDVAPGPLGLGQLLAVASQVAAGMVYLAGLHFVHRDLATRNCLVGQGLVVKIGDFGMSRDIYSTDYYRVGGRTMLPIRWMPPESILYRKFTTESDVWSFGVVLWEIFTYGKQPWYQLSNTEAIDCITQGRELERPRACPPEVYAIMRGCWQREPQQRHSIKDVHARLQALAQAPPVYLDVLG
T1 sequence (Q12809 whole entry): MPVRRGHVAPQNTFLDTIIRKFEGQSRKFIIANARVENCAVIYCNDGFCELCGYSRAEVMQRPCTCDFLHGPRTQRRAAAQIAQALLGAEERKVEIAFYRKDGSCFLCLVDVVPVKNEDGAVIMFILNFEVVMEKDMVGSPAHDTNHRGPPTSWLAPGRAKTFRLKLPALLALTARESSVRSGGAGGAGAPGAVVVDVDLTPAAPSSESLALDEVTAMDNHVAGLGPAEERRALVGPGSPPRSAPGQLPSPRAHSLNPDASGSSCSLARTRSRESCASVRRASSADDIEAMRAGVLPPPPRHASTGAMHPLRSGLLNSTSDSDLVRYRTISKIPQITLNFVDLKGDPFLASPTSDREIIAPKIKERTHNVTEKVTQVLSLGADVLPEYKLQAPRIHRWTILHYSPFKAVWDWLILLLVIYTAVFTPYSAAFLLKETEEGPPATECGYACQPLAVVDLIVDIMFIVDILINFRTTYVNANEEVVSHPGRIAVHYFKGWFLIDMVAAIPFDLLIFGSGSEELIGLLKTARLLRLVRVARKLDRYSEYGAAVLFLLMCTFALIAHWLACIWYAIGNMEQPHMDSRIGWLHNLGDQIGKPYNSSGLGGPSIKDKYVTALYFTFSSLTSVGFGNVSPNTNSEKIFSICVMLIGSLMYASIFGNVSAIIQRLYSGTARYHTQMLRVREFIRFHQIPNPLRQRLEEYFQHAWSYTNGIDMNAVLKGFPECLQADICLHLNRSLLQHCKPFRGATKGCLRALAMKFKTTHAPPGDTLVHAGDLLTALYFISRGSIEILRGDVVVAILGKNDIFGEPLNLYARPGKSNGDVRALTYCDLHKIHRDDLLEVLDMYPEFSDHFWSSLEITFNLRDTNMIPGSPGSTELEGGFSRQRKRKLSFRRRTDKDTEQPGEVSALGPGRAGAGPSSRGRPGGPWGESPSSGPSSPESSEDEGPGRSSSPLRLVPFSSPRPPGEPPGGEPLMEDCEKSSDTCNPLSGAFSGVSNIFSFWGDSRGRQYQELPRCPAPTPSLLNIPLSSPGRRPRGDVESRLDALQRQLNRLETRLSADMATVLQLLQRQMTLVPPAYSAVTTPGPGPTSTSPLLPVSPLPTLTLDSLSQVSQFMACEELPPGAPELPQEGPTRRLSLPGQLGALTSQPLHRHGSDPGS

A word on the IC50: it is the concentration at which inhibition is half-maximal. As a reminder, the clearance is the rate of elimination divided by the concentration. Take `COCCN1C[C@@H](NC(=O)Nc2c(C)c(-c3cnc(C)nc3)nn2-c2ccccc2)[C@H](c2cccc(F)c2)C1` [Compound 1, 1-((3S,4R)-4-(3-fluorophenyl)-1-(2-methoxyethyl)pyrrolidin-3-yl)-3-(4-methyl-3-(2-methylpyrimidin-5-yl)-1-phenyl-1H-pyrazol-5-yl)urea]: the IC50 in series [1] amounted to 20000 nM. For the same molecule, in the series on off-target kinases, the “activity against off-target kinases” value is “largely inactive”. In addition, in series [2], the clearance was 7.6 mL/min/kg and the “in vivo/in vitro correction factor” value is recorded as 3.16. Further, the half-inhibitory concentration (IC50) in series [3] turned out to be 1.1 nM.

Take `COCCN1C[C@@H](NC(=O)Nc2c(C)c(-c3cnc(C)nc3)nn2-c2ccccc2)[C@H](c2ccc(F)c(F)c2)C1` [Compound 2, 1-((3S,4R)-4-(3,4-difluorophenyl)-1-(2-methoxyethyl)pyrrolidin-3-yl)-3-(4-methyl-3-(2-methylpyrimidin-5-yl)-1-phenyl-1H-pyrazol-5-yl)urea]: the IC50 in series [1] is 6900 nM; in series [3], 1.5 nM. In addition, the clearance in series [2] was found to be 25 mL/min/kg; in series [4], 42 mL/min/kg. For the same molecule, the “in vivo/in vitro correction factor” value amounted to 1.04 in series [2] and 1.36 in series [4].

Take `COCCN1C[C@@H](NC(=O)Nc2c(C)c(-c3cnn(C)c3)nn2-c2ccccc2)[C@H](c2ccc(F)cc2)C1` [Compound 3, 1-(1′,4-dimethyl-1-phenyl-1H,1′H-[3,4′-bipyrazol]-5-yl)-3-((3S,4R)-4-(4-fluorophenyl)-1-(2-methoxyethyl)pyrrolidin-3-yl)urea]: in series [2], the clearance was 18 mL/min/kg and the “in vivo/in vitro correction factor” value amounted to 1.28. Moreover, in series [4], the “in vivo/in vitro correction factor” value amounted to 0.85 and the clearance was 71 mL/min/kg. The half-maximal inhibitory concentration (IC50) in series [3] came to 1.7 nM.
